Laboratory results reported in US20150238507A1, “BENZODIAZEPINES FOR TREATING SMALL CELL LUNG CANCER” (GlaxoSmithKline LLC, priority 2012, published 2015).
Read-outs that look alike come from different tables or passages of the source.

Key:
[1] = test system: small cell lung cancer lines; experiment: 6 day proliferation (cell growth) assay, panel of 38 small cell lung cancer lines; format: cell-based; conditions: 6 day proliferation assay; for IC50: 144 h
[2] = test system: NCI-H526 cell line xenograft; experiment: SCLC subcutaneous mouse xenograft model, efficacy and pharmacodynamics; format: in vivo; conditions: 25 mg/kg QD

IC50 ([1]; median of 38 small cell lung cancer lines, read-out: gIC50 (median over the panel)): 1460 nM
IC50 ([1]; panel of 38 small cell lung cancer lines, read-out: gIC50 (range over the panel)): 109 to 29300 nM
Structure (SMILES): CCNC(=O)C[C@@H]1N=C(c2ccc(Cl)cc2)c2cc(OC)ccc2-n2c(C)nnc21 [2-[(4S)-6-(4-chlorophenyl)-1-methyl-8-(methyloxy)-4H-[1,2,4]triazolo[4,3-a][1,4]benzodiazepin-4-yl]-N-ethylacetamide]
number of lines showing gIC50<10000 nM ([1]; of the 38 small cell lung cancer lines): 33
reduction of tumour growth ([2]; NCI-H526 subcutaneous mouse xenograft): 70%
p21 protein expression and caspase activation in tumour ([2]; NCI-H526 xenograft, antibody-based immunochemistry assay): induce p21 protein expression and caspase activation
